From paper PMC3070735, “Uremic Toxins Inhibit Transport by Breast Cancer Resistance Protein and Multidrug Resistance Protein 4 at Clinically Relevant Concentrations” (PLoS ONE, 2011) come the findings set out here.

Where a name gives a salt, the structure may show the parent alone. Read-outs that look alike come from different tables or passages of the source.

In the data set the target is T1, BCRP (Homo sapiens, UniProt Q9UNQ0).
T1 sequence (Q9UNQ0 1-655): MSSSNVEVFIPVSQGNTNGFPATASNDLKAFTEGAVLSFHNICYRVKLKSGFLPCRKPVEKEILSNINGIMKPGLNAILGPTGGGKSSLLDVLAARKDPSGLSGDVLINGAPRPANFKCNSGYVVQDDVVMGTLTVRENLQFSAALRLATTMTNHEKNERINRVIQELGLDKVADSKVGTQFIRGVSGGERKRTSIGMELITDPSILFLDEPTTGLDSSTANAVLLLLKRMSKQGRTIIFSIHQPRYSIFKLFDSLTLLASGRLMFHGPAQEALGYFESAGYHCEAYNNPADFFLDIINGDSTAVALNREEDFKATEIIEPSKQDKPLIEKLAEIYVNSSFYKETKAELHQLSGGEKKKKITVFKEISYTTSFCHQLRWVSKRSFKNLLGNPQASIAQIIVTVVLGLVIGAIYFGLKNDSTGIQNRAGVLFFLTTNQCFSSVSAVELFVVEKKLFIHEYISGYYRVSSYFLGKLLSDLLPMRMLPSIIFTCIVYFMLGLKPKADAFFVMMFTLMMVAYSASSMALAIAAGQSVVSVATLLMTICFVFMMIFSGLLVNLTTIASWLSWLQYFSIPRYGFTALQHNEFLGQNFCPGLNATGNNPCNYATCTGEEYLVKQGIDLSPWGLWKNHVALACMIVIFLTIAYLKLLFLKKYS
As to the kind of experiment: Membrane vesicle transport inhibition assay: BCRP-mediated [3H]-E1S uptake. Particulars: for Mode of inhibition of BCRP-mediated transport: Dixon plot, three [3H]-E1S concentrations; for IC50: IC50, [3H]-E1S uptake into BCRP membrane vesicles, 1 min, 37°C, mean ± SEM of three experiments; for IC20 at 1 min: human, membrane vesicles from HEK293 cells overexpressing BCRP, pH 7, probe [3H]-estrone sulfate ([3H]-E1S); for Decrease of BCRP-mediated transport compared to control: toxin 1 mM. On the procedure:
Human embryonic kidney (HEK293; purchased at American Type Culture Collection, Manassas, VA) cells were cultured in Dulbecco's modified Eagle's medium (Invitrogen life sciences, Breda, the Netherlands) containing 10% (v/v) fetal calf serum (MP Biomedicals, Uden, the Netherlands) at 37°C in a 5% (v/v) CO2 atmosphere. To functionally overexpress MRP4 and BCRP, HEK293 cells were transduced with baculoviruses of human MRP4, BCRP or enhanced yellow fluorescent protein (EYFP), generated via the Bac-to-Bac system (Invitrogen) as previously described. To transduce HEK293 cells, they were cultured in 500 cm^2 flasks until 70% confluence. Subsequently, medium was removed and 10 ml of virus and 25 ml of medium were added and incubated for 30 min at 37°C. Next, 50 ml of medium was added and after 2 h of transduction 5 mM sodium butyrate was added.
Three days after transduction, cells were harvested and pelleted by centrifugation (30 min at 4,000 x g). Afterwards, the cells were resuspended in ice-cold hypotonic TS buffer (0.5 mM sodium phosphate, 0.1 mM EDTA, pH 7.0) containing protease inhibitors (100 µM phenylmethylsulfonyl fluoride, 5 µg/ml aprotinin, 5 µg/ml leupeptin, 1 µg/ml pepstatin and 1 µg/ml E-64) and shaken for 30 min at 4°C. Cells were then centrifuged at 100,000 x g for 30 min at 4°C. Subsequently, pellet was resuspended in ice-cold isotonic buffer (10 mM Tris-HEPES and 250 mM sucrose, pH 7.4, adjusted with HEPES) supplemented with protease inhibitors and homogenized using a tight fitting Dounce homogenizer followed by centrifugation (1,000 x g, 20 min, 4°C). Afterwards, supernatant was centrifuged at 100,000 x g for 1 h at 4°C. The resulting pellet was resuspended in isotonic buffer and passed through a 27-gauge needle 25 times to obtain crude membrane vesicles. The protein content of samples was determined using the Bio-Rad protein assay (Veenendaal, the Netherlands), according to manufacturers recommendations. Vesicles were frozen in liquid nitrogen and stored at −80°C until use. The orientation of the membrane vesicles was not determined, since ATP-dependent uptake occurs only in inside-out vesicles.
A rapid filtration technique was used to study the uptake of [^3H]-MTX and [^3H]-E1S into MRP4 or BCRP membrane vesicles, as previously described. In short, 25 µl of TS buffer containing 4 mM ATP, 10 mM MgCl2 and radiolabeled substrate was added to 5 µl of the membrane vesicles (1.5 mg/ml). The transport assay was performed in the absence or presence of various concentrations of uremic toxins to evaluate the inhibitory effects of these compounds on MRP4-mediated [^3H]-MTX uptake and BCRP-mediated [^3H]-E1S uptake. […] Uptake was stopped by placing the samples on ice and the addition of 150 µl ice cold TS buffer. Subsequently, the samples were transferred to a 96 well filter plate (Millipore, Etten-leur, the Netherlands) pre-incubated with TS buffer and filtered using a Multiscreen HTS-Vacuum Manifold filtration device (Millipore). Afterwards, 2 ml of scintillation liquid was added to each filter and radioactivity was determined using liquid scintillation counting. As negative controls ATP was substituted for AMP and EYFP-membrane vesicles were used. Each experiment was performed in triplicates.
Statistics were performed using GraphPad Prism 5.02 via an unpaired t test or a Kruskal-Wallis test followed by a Dunn's Multiple Comparison test. Differences between groups were considered to be statistically significant when p<0.05. The mean IC50 and IC20 values were calculated from the inhibition curves used for the Dixon analysis and to determine the inhibition constant (Ki) from the Dixon plots. Transport inhibition studies were performed in triplicate and repeated at least three times.

Setting [1] is: [3H]-E1S uptake, result in words.

Turning to `O=C(O)CNC(=O)c1ccccc1` [hippuric acid], affinity was put at a Ki of 4000 ± 100 µM, the “Mode of inhibition of BCRP-mediated transport” value is “non-competitive”, the IC50 is 3670 ± 170 µM and the IC20 at 1 min turned out to be 690 ± 70 µM. Also, for the setting “0.1 mM to 3.5 mM, result in words”, the “Extent of inhibition of [3H]-E1S uptake by BCRP” value is recorded as “completely blocked”.
In the case of `O=C(O)Cc1c[nH]c2ccccc12` [indole-3-acetic acid], the “Effect on transport mediated by BCRP” value under setting [1] is “only reduced [^3H]-MTX uptake by MRP4”.
`O=S(=O)(O)Oc1c[nH]c2ccccc12` [indoxyl sulfate]: the Ki is 500 µM, the “Mode of inhibition of BCRP-mediated transport” value is given as “non-competitive”, the IC50 came out at 770 ± 120 µM and the IC20 at 1 min came out at 390 ± 30 µM.
`O=C(O)c1cc(=O)c2ccccc2[nH]1` [kynurenic acid] gave a Ki of 50 µM, an IC50 of 40 ± 1 µM and an IC20 at 1 min of 10 ± 1 µM.
Regarding `O=C(O)C(=O)O` [oxalate], the “Effect on transport mediated by BCRP” value under setting [1] was “did not alter transport”. In addition, where the note is “[3H]-E1S uptake”, the “Decrease of BCRP-mediated transport compared to control” value (shortened to “Decrease of BCRP-mediated transport”) is given as at most 10%.
Turning to `Cc1ccc(O)cc1` [p-cresol], the “Effect on transport mediated by BCRP” value is on record as “did not alter transport”. Moreover, the “Decrease of BCRP-mediated transport” value ([3H]-E1S uptake) is on record as at most 10%.
Consider `Cc1ccc(S(=O)(=O)O)cc1` [p-toluenesulfonic acid, reference compound], for which, under setting [1], the “Effect on transport mediated by BCRP” value is “did not alter transport”. In addition, the “Decrease of BCRP-mediated transport” value ([3H]-E1S uptake) is at most 10%.
Turning to `O=C(O)Cc1ccccc1` [phenylacetic acid], the “Effect on transport mediated by BCRP” value under setting [1] was “only reduced [^3H]-MTX uptake by MRP4”.
For `NCCCCN` [putrescine], the “Effect on transport mediated by BCRP” value under setting [1] is “did not alter transport”. For the same compound, the “Decrease of BCRP-mediated transport” value ([3H]-E1S uptake) was at most 10%.
For `O=C(O)c1cccnc1C(=O)O` [quinolinic acid], in that order: “did not alter transport” and at most 10%.

The term Ki denotes the equilibrium dissociation constant of an inhibitor or competing ligand from its target. A lower Ki goes with higher affinity. As usually defined, the IC50 is the concentration that gives 50% inhibition. A low value points to greater potency in that assay. In general, IC20 refers to the concentration at which the effect reaches the 20% level. A high value points to a need for much substance.
